Structures are written as SMILES. Activity calls are given as the source filed them. No cut-off for these calls is given here.

For one assay, the system named is Rattus norvegicus. Kind of assay: Effect of compound on total full contralateral turns at the dose of 10 mg/Kg administered perorally in ungerstedt rat model; […]. It counts as functional, organism-based.
As for `CCCN(CCC)C1CCC2=C(CCC/C2=N\OC(=O)c2ccc(C)cc2)C1` (stereo unspecified), the Turns result was “inactive”.

For another assay, the target named is D(1A) dopamine receptor (Rattus norvegicus, UniProt P18901). Kind of assay: In vitro binding affinity towards Dopamine receptor D1.
D(1A) dopamine receptor, sequence (P18901 whole entry): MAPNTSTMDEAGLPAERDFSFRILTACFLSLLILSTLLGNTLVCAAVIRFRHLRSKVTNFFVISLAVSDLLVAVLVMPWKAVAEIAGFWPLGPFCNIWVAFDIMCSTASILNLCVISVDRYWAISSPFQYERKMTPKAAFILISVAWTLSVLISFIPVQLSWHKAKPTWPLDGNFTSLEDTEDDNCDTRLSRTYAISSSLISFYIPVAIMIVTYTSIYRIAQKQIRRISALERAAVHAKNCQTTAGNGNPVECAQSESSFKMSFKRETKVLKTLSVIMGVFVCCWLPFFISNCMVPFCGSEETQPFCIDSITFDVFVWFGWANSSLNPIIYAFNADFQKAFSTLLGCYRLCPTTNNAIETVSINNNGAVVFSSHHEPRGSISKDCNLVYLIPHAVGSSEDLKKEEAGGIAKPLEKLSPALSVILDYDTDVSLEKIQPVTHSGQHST
Regarding `CCCN(CCC)C1CCc2c(ccc(O)c2O)C1` (racemic), the affinity, expressed as Ki, was 0.17 µM.

The next assay has as its system Rattus norvegicus. Kind of assay: Effect of compound on total full contralateral turns at the dose of 1.0 mg/Kg administered perorally in ungerstedt rat model. It counts as functional.
As to `CCCN(CCC)C1CCC2=C(CCC/C2=N\OC)C1` (racemic), the Turns was found to be 5295.
Take `CCCN(CCC)C1CCC2=C(CCC/C2=N\OCc2ccccc2)C1` (stereo unspecified): the Turns was 4702.
Still for that read-out and setting: for `CCCN(CCC)C1CCC2=C(CCC/C2=N\OC(=O)c2ccccc2)C1` (stereo unspecified) the value was 2208; for `CCCCO/N=C1\CCCC2=C1CCC(N(CCC)CCC)C2` (stereo unspecified), 1364; for `CCCO/N=C1\CCCC2=C1CCC(N(CCC)CCC)C2` (stereo unspecified), 5406.
Still for that read-out and setting: with `CCCN(CCC)C1CCC2=C(CCC/C2=N\OCC)C1` (stereo unspecified) the figure was 4217.
`CCCN(CCC)C1CCC2=C(CCC/C2=N\OC(C)(C)C)C1` (stereo unspecified) gave a Turns of 2118.

A further assay relates to Rattus norvegicus. Kind of assay: Effect of compound on total full contralateral turns at the dose of 0.3 mg/Kg administered perorally in ungerstedt rat model. It counts as functional.
Molecule `CCCN(CCC)C1CCC2=C(CCC/C2=N\OC(C)=O)C1` (stereo unspecified) gave a Turns of 365.
Same read-out and setting: for `CCCN(CCC)[C@H]1CCC2=C(CCC/C2=N\OC(C)=O)C1` the value was 2007.
`CCCN(CCC)C1CCC2=C(CCC/C2=N\OC)C1` (racemic): the Turns was 1007.
Take `CCCN(CCC)C1CCC2=C(CCC/C2=N\OC(=O)C(C)C)C1` (stereo unspecified): the Turns came to 152.
Still for that read-out and setting: with `CCCN(CCC)C1CCC2=C(CCC/C2=N\OCc2ccccc2)C1` (stereo unspecified) the figure was 1652; with `CCCN(CCC)C1CCC2=C(CCC/C2=N\OC(=O)C(C)(C)C)C1` (stereo unspecified), 187; with `CCCO/N=C1\CCCC2=C1CCC(N(CCC)CCC)C2` (stereo unspecified), 943.
Still for that read-out and setting: for `CCCN(CCC)C1CCC2=C(CCC/C2=N\OCC)C1` (stereo unspecified) the value was 176.

A further assay deals with D(2) dopamine receptor (Rattus norvegicus, UniProt P61169). Kind of assay: In vitro binding affinity towards Dopamine receptor D2.
D(2) dopamine receptor (Rattus norvegicus, UniProt P61169), sequence (P61169 whole entry): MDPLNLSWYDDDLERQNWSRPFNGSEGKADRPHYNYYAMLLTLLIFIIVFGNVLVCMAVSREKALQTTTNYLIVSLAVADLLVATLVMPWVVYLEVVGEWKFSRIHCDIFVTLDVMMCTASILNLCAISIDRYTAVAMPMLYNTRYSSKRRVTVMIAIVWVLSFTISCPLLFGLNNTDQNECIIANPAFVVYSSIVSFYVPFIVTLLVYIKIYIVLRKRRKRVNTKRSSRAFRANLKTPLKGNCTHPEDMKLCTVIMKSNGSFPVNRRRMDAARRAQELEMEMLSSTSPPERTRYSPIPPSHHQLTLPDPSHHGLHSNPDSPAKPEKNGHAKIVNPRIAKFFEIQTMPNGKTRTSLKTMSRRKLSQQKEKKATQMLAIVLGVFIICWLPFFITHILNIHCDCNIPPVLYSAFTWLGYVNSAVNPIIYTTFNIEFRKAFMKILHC
Take `CCCN(CCC)C1CCC2=C(CCC/C2=N\OC)C1` (racemic): the affinity corresponds to a Ki of 2.3 µM.
For `CCCN(CCC)C1CCc2c(ccc(O)c2O)C1` (racemic), the Ki – broadly, the equilibrium dissociation constant of an inhibitor or competing ligand from its target – came out at 0.003 µM.

A further assay deals with D(2) dopamine receptor (Homo sapiens, UniProt P14416). Kind of assay: Tested for percent intrinsic activity towards Dopamine receptor D2 in CHO cells. It counts as cell-based.
D(2) dopamine receptor (Homo sapiens, UniProt P14416), sequence (P14416 whole entry): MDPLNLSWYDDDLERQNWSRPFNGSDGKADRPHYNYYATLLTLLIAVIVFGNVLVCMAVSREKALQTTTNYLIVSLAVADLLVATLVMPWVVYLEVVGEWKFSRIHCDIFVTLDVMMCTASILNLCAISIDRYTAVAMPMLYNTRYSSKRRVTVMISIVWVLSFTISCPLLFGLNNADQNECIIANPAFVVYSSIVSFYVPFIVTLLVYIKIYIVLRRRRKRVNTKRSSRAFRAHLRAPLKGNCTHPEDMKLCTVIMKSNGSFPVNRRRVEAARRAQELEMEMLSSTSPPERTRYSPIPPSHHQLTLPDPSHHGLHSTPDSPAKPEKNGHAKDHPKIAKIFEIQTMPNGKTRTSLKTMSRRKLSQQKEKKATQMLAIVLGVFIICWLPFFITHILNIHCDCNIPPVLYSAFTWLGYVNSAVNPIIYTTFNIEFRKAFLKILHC
With `CCCN(CCC)C1CCC2=C(CCC/C2=N\OC)C1` (racemic), the EC50 (as a rule, the concentration needed to bring the measured effect to its halfway point) is above 1 µM.

The next assay deals with Rattus norvegicus. Kind of assay: Effect of compound on total full contralateral turns at the dose of 10 mg/Kg administered perorally in ungerstedt rat model. The class given is functional.
For the molecule `CCCN(CCC)[C@H]1CCC2=C(CCC/C2=N\OC)C1`, the Turns was 2014.

Source of the values: ChEMBL document CHEMBL1144936, “Orally active oxime derivatives of the dopaminergic prodrug 6-(N,N-di-n-propylamino)-3,4,5,6,7,8-hexahydro-2H-naphthalen-1-one. Synthesis and pharmacological activity” (J Med Chem, 2003).
